Results taken from patent publication US10039759B2, “Quinolines as FGFR kinase modulators” (priority 2011, dated 2018).
Where two headings read alike, the source gives them in different places.

Assays:
FGFR2 (h) = FGFR2 (h) (Homo sapiens, UniProt P21802); test: FGFR2 (enzymatic assay), TR-FRET; format: biochemical; conditions: 60 min, pIC50 = -log IC50 (M), average if tested multiple times
[1] = biological target: T1, Ba/F3-FGFR1-transfected cells (Homo sapiens, UniProt P11362, cells depend on it, form not given); test: Ba/F3-FGFR1 (minus IL3 or plus IL3) cellular proliferation assay, Alamar Blue; format: cell-based; conditions: minus IL3, 24 hours
T1 construct: other: minus IL3; 24 hours, Alamar Blue
T1 sequence (P11362 whole entry, change not shown): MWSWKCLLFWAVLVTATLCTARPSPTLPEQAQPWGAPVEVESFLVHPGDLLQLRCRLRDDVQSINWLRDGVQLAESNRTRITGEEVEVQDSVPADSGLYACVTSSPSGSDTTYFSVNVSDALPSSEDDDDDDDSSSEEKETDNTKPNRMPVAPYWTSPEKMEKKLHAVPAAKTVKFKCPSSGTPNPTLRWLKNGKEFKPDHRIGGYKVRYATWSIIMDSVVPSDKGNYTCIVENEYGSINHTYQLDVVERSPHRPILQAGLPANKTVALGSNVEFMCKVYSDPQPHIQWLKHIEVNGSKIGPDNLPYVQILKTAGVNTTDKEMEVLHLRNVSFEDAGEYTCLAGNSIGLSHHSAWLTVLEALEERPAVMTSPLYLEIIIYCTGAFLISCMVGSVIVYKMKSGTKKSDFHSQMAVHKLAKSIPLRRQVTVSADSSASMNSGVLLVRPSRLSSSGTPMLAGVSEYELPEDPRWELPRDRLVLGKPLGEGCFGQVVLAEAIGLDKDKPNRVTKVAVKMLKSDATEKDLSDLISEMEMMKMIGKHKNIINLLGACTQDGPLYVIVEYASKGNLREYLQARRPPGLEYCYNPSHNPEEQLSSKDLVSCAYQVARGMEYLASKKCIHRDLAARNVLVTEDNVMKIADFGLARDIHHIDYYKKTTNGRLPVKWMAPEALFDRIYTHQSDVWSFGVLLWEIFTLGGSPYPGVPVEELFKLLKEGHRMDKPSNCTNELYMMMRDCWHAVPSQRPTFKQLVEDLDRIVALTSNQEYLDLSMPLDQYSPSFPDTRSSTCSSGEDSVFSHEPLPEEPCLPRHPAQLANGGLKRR
Experimental: Ba/F3-FGFR1 (Minus IL3 or Plus IL3) (Cellular Proliferation Assay)
(§1) In a 384 well plate, 100 nl of compound dilution in DMSO was sprayed before adding 50 μl cell culture medium (phenol red free RPMI-1640, 10% FBS, 2 mM L-Glutamine and 50 μg/ml Gentamycin) containing 20000 cells per well of Ba/F3-FGFR1-transfected cells. Cells were put in an incubator at 37° C. and 5% CO2. After 24 hours, 10 μl of Alamar Blue solution (0.5 mM K3Fe(CN)6, 0.5 mM K4Fe(CN)6, 0.15 mM Resazurin and 100 mM Phosphate Buffer) was added to the wells, incubated for 4 hours at 37° C. and 5% CO2 before RFU's (Relative Fluorescence Units) (ex. 540 nm., em. 590 nm.) were measured in a fluorescence plate reader.
(§2) In this assay, the inhibitory effect of different compound concentrations (range 10 μM to 0.1 nM) was determined and used to calculate an IC50 (M) and pIC50 (−log IC50) value. As a counterscreen the same experiment was performed in the presence of 10 ng/ml murine IL3.

[2] = biological target: T2, Ba/F3-Flt3-transfected cells (Homo sapiens, UniProt P36888, cells depend on it, form not given); test: Ba/F3-Flt3 (minus IL3 or plus IL3) cellular proliferation assay, Alamar Blue; format: cell-based; conditions: minus IL3, 24 hours
T2 construct: BAF3-FLT3 (MIN IL3 Alamar Blue pIC50); other: minus IL3; 24 hours, Alamar Blue
T2 sequence (P36888 1-993): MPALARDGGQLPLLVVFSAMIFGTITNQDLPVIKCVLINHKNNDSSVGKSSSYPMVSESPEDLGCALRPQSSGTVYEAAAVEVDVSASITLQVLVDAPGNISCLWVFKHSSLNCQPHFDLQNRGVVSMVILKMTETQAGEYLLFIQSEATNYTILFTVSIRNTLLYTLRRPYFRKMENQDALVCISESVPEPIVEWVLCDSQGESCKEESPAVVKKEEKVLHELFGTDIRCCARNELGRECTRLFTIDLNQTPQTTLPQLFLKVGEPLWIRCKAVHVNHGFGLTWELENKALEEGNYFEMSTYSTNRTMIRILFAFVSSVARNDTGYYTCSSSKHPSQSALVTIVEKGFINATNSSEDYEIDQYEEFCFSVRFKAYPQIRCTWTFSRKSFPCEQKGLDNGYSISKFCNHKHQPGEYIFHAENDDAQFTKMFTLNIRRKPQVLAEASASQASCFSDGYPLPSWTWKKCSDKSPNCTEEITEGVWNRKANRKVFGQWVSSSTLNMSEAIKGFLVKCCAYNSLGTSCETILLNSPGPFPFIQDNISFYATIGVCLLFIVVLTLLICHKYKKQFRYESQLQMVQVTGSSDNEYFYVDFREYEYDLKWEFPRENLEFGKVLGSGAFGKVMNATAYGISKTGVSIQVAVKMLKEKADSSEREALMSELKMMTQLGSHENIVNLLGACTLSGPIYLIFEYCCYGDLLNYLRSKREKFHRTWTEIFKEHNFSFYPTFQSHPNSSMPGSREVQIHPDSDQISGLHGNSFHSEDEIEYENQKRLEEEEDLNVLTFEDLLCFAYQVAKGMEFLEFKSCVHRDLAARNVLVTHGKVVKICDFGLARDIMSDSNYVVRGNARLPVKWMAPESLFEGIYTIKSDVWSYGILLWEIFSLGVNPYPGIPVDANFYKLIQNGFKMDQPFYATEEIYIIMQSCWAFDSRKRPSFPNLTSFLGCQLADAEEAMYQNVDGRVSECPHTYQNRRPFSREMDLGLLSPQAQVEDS
Experimental: Ba/F3-Flt3 (Minus IL3 or Plus IL3) (Cellular Proliferation Assay)
as §1, with “Ba/F3-Flt3-transfected” for “Ba/F3-FGFR1-transfected”
as §2

[3] = biological target: T3, Ba/F3-KDR-transfected cells (Homo sapiens, UniProt P35968, cells depend on it, form not given); test: Ba/F3-KDR (minus IL3 or plus IL3) cellular proliferation assay, Alamar Blue; format: cell-based; conditions: minus IL3; 24 hours, Alamar Blue
T3 construct: BAF3-KDR (MIN IL3 Alamar Blue pIC50); other: minus IL3; 24 hours, Alamar Blue
T3 sequence (P35968 whole entry, change not shown): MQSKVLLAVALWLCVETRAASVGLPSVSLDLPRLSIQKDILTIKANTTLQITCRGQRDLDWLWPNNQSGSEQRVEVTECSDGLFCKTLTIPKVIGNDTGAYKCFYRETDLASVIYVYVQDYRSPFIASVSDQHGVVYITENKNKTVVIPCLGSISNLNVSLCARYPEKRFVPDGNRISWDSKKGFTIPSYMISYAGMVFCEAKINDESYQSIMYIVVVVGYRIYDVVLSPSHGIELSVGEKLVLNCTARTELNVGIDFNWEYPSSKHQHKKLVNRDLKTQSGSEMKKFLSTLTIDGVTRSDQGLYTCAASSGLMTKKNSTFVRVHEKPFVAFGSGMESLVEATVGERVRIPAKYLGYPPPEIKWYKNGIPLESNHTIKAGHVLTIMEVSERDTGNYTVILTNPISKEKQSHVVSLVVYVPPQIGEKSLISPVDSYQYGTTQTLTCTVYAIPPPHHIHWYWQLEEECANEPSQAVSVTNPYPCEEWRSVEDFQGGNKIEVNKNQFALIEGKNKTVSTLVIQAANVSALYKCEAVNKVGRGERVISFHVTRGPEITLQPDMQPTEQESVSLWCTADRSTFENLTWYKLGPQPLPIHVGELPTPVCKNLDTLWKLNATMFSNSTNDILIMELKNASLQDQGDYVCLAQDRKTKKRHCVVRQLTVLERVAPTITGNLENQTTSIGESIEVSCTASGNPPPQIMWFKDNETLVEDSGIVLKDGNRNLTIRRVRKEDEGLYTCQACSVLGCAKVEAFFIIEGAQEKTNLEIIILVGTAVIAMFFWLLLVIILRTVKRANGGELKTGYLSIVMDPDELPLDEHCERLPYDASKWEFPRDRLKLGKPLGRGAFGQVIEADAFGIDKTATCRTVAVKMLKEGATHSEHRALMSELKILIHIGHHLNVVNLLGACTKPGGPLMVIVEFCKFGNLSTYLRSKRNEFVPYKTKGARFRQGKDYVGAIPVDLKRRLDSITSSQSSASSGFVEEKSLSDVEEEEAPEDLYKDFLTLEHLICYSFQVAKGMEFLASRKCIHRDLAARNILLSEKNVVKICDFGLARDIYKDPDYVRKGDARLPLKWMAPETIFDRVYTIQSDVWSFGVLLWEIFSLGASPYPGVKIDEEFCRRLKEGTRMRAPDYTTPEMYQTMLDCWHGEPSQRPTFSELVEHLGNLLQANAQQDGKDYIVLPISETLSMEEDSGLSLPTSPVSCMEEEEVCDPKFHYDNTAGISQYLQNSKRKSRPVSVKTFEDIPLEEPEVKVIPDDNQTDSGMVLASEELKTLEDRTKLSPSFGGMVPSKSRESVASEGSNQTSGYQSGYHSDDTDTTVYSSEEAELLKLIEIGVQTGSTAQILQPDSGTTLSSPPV
Experimental: Ba/F3-KDR (Minus IL3 or Plus IL3) (Cellular Proliferation Assay)
as §1, with “Ba/F3-KDR-transfected” for “Ba/F3-FGFR1-transfected”
as §2

FGFR1 (h) = FGFR1 (h) (Homo sapiens, UniProt P11362); test: FGFR1 (enzymatic assay), TR-FRET; format: biochemical; conditions: FGFR 1 pIC50, 5 μM ATP, 60 min; pIC50 = -log IC50 (M); average if tested multiple times
Chain of FGFR1 (h) (P11362 22-822): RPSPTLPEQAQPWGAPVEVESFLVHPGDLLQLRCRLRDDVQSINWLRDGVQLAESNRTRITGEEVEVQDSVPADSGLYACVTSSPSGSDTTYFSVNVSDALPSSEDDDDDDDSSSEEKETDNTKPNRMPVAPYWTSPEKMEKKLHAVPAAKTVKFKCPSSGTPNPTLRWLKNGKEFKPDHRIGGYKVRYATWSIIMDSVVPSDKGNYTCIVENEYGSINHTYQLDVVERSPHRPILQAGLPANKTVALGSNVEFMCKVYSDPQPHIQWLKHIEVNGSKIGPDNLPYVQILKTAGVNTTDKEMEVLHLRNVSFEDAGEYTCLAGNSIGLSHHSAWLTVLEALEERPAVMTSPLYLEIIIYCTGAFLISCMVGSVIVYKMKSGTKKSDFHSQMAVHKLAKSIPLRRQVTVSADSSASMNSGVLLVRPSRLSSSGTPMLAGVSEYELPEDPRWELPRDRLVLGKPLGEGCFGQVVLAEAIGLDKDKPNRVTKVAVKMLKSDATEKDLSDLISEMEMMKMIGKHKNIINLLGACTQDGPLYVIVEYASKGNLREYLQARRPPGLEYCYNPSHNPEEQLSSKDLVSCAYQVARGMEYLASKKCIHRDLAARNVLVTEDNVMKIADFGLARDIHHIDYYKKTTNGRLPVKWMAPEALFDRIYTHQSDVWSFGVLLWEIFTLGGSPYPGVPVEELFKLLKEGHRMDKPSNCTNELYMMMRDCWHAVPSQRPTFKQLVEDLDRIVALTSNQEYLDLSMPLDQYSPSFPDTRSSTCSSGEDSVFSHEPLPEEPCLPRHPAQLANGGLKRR

[4] = 0.4 μM ATP, read-out: FGFR 2 pIC50 (converted)

Chain of FGFR2 (h) (P21802 22-821): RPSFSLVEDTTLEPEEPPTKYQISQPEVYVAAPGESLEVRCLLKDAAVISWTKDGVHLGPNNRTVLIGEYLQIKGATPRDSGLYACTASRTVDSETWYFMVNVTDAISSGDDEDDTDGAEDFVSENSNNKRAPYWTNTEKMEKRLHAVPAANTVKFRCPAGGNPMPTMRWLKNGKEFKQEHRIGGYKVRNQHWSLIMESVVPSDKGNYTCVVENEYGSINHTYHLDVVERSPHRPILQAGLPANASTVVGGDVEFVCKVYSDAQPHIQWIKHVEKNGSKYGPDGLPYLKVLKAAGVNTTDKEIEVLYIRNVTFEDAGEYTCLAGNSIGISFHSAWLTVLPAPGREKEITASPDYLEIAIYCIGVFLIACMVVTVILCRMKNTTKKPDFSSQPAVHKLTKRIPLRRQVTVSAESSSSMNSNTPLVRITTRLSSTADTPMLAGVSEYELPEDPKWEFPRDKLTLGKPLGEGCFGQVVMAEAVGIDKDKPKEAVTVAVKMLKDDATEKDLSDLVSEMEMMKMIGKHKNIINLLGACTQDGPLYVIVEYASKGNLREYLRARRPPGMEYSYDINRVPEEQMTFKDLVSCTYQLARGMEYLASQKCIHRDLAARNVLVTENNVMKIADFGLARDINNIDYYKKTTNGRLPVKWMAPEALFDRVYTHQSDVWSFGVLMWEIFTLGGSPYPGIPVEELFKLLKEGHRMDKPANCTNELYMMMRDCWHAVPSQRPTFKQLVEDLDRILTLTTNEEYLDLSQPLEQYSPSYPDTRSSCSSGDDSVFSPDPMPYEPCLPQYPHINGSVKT

SMILES	IC50 (FGFR2 (h); [4]) [M]	BAF3-FGFR1 (MIN IL3 pIC50) [1]	BAF3-FLT3 (MIN IL3 Alamar Blue pIC50) [2]	BAF3-KDR (MIN IL3 Alamar Blue pIC50) [3]	IC50 (FGFR1 (h)) [M]	IC50 (FGFR2 (h); FGFR 2 pIC50, 0.4 μM ATP) [M]
COc1cc(OC)cc(N(CC(O)C(F)(F)F)c2ccc3ncc(-c4cnn(C)c4)cc3c2)c1 (single isomer, unassigned) [Compound 24]	4.9e-09	7.73	<5	5.05	–	–
COc1cc(OC)cc(N(CC(O)C(F)(F)F)c2ccc3ncc(-c4cnn(C)c4)cc3c2)c1 (single isomer, unassigned) [Compound 25]	1.95e-08	6.57	<5	<5	–	–
COc1cc(OC)cc(N(CCNC(C)C)c2ccc3ncc(-c4cnn(C)c4)cc3c2)c1 [Compound 1]	4.95e-09	7.4	~5	5.635	–	–
COc1cc(OC)c(F)c(N(CCNC(C)C)c2ccc3ncc(-c4cnn(C)c4)cc3c2)c1 [Compound 2]	3.24e-09	8.3	5.34	6.18	1.32e-09	–
COc1cc(OC)cc(N(CCO)c2ccc3ncc(-c4cnn(C)c4)cc3c2)c1 [Compound 3]	1.48e-08	6.31	5.52	5.65	1.38e-08	–
COc1cc(OC)cc(N(CCCO)c2ccc3ncc(-c4cnn(C)c4)cc3c2)c1 [Compound 4]	1.35e-08	6.26	5.35	5.45	1.91e-08	–
COc1cc(OC)cc(N(CCCNCC(F)(F)F)c2ccc3ncc(-c4cnn(C)c4)cc3c2)c1 [Compound 5]	3.16e-08	5.79	5.06	5.18	–	–
C#CCN(c1cc(OC)cc(OC)c1)c1ccc2ncc(-c3cnn(C)c3)cc2c1 [Compound 6]	3.02e-08	5.7	5.2	5.07	1.51e-08	–
COc1cc(OC)cc(N(CC2CCN(c3nccc(OC)n3)C2)c2ccc3ncc(-c4cnn(C)c4)cc3c2)c1 (stereo not shown) [Compound 7]	> 1e-06	<5	<5	<5	–	–
COc1cc(OC)cc(N(Cc2ncccn2)c2ccc3ncc(-c4cnn(C)c4)cc3c2)c1 [Compound 8]	2e-08	6.27	<5.47	<5	–	–
COc1cc(OC)cc(N(Cc2nccn2S(=O)(=O)N(C)C)c2ccc3ncc(-c4cnn(C)c4)cc3c2)c1 [Compound 9]	7.76e-09	6.14	<5	<5	5.62e-09	–
COc1cc(OC)cc(N(CCCN2CCCC2=O)c2ccc3ncc(-c4cnn(C)c4)cc3c2)c1 [Compound 10]	1.29e-08	6.03	<5	5.11	–	–
COc1cc(OC)cc(N(CCCN)c2ccc3ncc(-c4cnn(C)c4)cc3c2)c1 [Compound 11]	2.29e-09	6.67	<5	5.42	3.63e-09	–
COc1cc(OC)cc(C(O)c2ccc3ncc(-c4cnn(C)c4)cc3c2)c1 (stereo not shown) [Compound 12]	4.17e-07	<5.03	<5.47	<5	2.95e-07	–
COc1cc(OC)cc(N(CCNC(C)C)c2ccc3ncc(-c4cnn(CCS(C)(=O)=O)c4)cc3c2)c1 [Compound 14]	5.25e-09	7.2	<5	5.45	–	–
COc1cc(OC)cc(N(CC#Cc2nccc(OC)n2)c2ccc3ncc(-c4cnn(C)c4)cc3c2)c1 [Compound 16]	1.55e-08	>8	5.19	<5	9.33e-09	–
COc1cc(OC)cc(N(CC#Cc2ncccc2OC)c2ccc3ncc(-c4cnn(C)c4)cc3c2)c1 [Compound 17]	1.2e-07	7.35	<5	<5	8.32e-08	–
COc1cc(OC)cc(N(CCCN2CCCO2)c2ccc3ncc(-c4cnn(C)c4)cc3c2)c1 [Compound 19]	–	6.32	6.03	5.1	–	1.15e-08
COc1cc(OC)cc(N(CCNC(C)C)c2ccc3ncc(-c4cn[nH]c4)cc3c2)c1 [Compound 21]	2.57e-09	7.55	5.09	5.49	–	–
COc1cc(OC)cc(N(CC#Cc2nccn2C)c2ccc3ncc(-c4cnn(C)c4)cc3c2)c1 [Compound 48]	1.45e-08	7.24	5.23	5.02	–	–
COc1cc(OC)cc(N(Cc2nccn2S(=O)(=O)N(C)C)c2ccc3ncc(-c4ccncc4)cc3c2)c1 [Compound 58]	1.29e-08	~5.86	<5	<5	–	–
COc1cc(OC)cc(N(Cc2nccn2S(=O)(=O)N(C)C)c2ccc3ncc(-c4cccnc4)cc3c2)c1 [Compound 60]	1.95e-08	5.37	<5	<5	–	–
